Earlier results as cited in patent US20180000827A1 (SYNTHON B.V., priority 2014, published 2018).

solubility dependence on pH: highly dependent upon pH
SMILES: COc1cc2ncnc(Nc3ccc(F)c(Cl)c3)c2cc1OCCCN1CCOCC1 [Gefitinib, 4-(3-chloro-4-fluorophenylamino)-7-methoxy-6-[3-(4-morpholinyl)propoxy] quinazoline]
